We go through 1 compound from ChEMBL document CHEMBL4619828, “Discovery of Potent and Orally Bioavailable Small Molecule Antagonists of Toll-like Receptors 7/8/9 (TLR7/8/9)” (ACS Med Chem Lett, 2020).

The target in one series is Toll-like receptor 4 (Homo sapiens, UniProt O00206). Description: Antagonist activity at human TLR4 overexpressed in HEK-Blue cells assessed as inhibition of […] induced NFkappaB and AP-1 activation preincubated for 30 mins followed by […] stimulation measured after 22 hrs by quanti-blue SEAP assay. Type of series: cell-based.
Sequence of Toll-like receptor 4 (O00206 whole entry): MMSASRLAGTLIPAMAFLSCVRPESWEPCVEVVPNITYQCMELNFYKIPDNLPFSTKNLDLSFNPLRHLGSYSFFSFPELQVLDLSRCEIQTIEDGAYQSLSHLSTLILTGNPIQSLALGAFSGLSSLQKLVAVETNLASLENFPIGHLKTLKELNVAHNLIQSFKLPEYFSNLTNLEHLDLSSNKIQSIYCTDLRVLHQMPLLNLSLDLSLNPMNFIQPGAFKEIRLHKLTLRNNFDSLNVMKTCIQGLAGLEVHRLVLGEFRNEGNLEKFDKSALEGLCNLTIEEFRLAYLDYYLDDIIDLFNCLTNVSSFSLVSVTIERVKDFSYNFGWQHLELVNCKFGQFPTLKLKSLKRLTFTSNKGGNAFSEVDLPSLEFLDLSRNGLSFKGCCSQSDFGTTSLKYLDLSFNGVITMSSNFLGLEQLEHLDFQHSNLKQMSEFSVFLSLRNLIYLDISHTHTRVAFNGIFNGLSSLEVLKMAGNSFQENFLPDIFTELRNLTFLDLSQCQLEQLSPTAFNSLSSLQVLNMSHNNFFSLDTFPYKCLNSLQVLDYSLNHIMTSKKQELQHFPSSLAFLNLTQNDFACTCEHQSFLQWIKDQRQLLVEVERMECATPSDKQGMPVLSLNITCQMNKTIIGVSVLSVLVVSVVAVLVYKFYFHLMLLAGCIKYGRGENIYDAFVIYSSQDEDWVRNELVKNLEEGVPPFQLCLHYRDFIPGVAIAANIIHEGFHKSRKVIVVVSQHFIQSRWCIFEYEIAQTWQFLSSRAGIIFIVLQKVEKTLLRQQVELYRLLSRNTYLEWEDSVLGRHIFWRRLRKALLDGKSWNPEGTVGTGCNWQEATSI
Series [1] addresses T1, Toll-like receptor 9 (Homo sapiens, UniProt Q9NR96).
T1 sequence (Q9NR96 whole entry): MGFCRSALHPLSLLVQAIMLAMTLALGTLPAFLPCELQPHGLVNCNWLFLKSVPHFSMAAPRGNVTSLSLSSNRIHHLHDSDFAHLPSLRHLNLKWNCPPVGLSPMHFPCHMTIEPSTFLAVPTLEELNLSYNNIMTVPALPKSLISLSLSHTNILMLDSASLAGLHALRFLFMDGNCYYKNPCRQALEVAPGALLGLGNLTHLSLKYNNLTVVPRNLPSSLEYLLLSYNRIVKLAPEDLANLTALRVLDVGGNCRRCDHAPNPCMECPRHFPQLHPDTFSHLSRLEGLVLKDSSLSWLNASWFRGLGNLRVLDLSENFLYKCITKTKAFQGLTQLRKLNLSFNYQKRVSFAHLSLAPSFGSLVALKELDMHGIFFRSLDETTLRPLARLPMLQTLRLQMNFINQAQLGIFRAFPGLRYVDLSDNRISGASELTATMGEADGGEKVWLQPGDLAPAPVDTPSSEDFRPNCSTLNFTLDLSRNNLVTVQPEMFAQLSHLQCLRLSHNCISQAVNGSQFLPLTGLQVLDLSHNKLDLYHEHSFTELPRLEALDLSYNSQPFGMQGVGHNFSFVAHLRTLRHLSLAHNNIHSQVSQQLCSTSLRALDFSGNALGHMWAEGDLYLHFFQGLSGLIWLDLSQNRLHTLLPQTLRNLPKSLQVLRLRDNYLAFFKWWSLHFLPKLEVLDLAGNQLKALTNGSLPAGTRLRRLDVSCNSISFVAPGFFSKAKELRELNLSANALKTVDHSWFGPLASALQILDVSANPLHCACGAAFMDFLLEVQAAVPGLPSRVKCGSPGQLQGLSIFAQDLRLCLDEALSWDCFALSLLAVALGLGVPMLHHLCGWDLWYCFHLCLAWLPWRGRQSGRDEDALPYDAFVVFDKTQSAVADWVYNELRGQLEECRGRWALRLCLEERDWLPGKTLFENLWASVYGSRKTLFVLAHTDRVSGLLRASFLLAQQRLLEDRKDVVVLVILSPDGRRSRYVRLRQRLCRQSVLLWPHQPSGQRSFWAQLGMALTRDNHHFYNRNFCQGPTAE
Description: Antagonist activity at TLR9 (unknown origin) in PBMC cells assessed as reduction of IL-6 production. It counts as cell-based.

Series [2] has as its target T1, Toll-like receptor 9. The series can be described thus: Antagonist activity at TLR9 in human whole blood cells assessed as inhibition of ODN-2216 induced IL-6 production by ELISA. Type of series: cell-based.
A short description of series [3]: Cmax in mouse at 15 mg/kg, po. It counts as ADME, organism-based. On the set-up: dose 15 mg/kg, route oral. Particulars: in vivo.
Series [4] in a line: Volume of distribution in steady state in mouse at 3 mg/kg, iv. Type of series: ADME, organism-based. To be noted: in vivo, read-out: Vdss.
Series [5] in a line: Oral bioavailability in mouse at 15 mg/kg. Type of series: ADME, organism-based. Particulars: in vivo.
The target in series [6] is T2, Toll-like receptor 9 (Mus musculus, UniProt Q9EQU3).
T2 sequence (Q9EQU3 whole entry): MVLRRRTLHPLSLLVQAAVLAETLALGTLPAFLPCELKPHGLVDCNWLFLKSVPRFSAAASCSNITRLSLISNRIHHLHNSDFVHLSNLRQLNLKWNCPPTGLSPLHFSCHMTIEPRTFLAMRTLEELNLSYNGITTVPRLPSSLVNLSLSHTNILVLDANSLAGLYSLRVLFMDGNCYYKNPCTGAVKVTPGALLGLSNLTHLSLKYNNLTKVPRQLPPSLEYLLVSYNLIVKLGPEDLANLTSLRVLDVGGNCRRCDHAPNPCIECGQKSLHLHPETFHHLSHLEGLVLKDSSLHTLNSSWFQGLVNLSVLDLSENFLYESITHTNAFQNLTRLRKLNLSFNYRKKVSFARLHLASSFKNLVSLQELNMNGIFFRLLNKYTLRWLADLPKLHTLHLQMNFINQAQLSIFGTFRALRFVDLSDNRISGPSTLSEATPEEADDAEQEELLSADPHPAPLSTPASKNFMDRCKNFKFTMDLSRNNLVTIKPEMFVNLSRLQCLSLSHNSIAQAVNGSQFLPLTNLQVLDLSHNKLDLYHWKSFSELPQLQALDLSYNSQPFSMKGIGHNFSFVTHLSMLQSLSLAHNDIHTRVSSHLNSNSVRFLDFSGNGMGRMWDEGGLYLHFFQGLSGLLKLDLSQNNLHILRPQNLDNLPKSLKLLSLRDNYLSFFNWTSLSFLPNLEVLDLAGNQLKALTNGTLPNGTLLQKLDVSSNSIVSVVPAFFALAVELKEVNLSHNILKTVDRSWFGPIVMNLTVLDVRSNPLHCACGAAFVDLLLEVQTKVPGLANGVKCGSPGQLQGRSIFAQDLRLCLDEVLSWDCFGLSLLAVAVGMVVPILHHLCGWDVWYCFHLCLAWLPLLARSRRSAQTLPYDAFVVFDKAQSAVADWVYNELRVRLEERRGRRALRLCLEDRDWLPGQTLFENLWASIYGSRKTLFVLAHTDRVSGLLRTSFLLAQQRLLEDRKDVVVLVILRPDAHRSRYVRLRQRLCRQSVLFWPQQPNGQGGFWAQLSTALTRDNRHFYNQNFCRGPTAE
Description: In vivo antagonist activity at TLR9 in po dosed C57BL/6 mouse assessed as reduction of CpG-ODN-1585-induced IL-6 production pretreated for 30 mins followed by CpG-ODN-1585-stimulation and measured after 120 mins by ELISA

For orientation: IC50 means the point on the concentration scale where inhibition reaches its midpoint. The Cmax is the maximum level reached in the sampled fluid or tissue. The bioavailability is dose-corrected exposure relative to a reference, in per cent. What is called EC50 is the concentration at which the effect is half-maximal. As for `CNCCN1CCC(c2ccc3[nH]c(-c4ccc(OC)c(OC)c4)c(C(C)C)c3c2)CC1`, the IC50 on Toll-like receptor 4 worked out at 15100 nM; on Toll-like receptor 9 [1] it was 510 nM; at Toll-like receptor 9 [2], 320 nM. In series [3], the Cmax turned out to be 1630 nM. Also, the Vd in series [4] is 20 L/kg. The compound also displayed a bioavailability in series [5] of 62%. The compound further gave an EC50 on Toll-like receptor 9 [6] of 25 nM.
